In patent US20250129088A1, “CEREBLON E3 UBIQUITIN LIGASE INHIBITOR” (Gan & Lee Pharmaceuticals Co., Ltd., priority 2022, published 2025):

Columns and labels:
Assay type in all cases: cell-based
K562 cells = test: K562 cell proliferation inhibition, CCK-8; settings: K562, 4 days
Description: The complete medium required for K562 cells is IMDM (ATCC, Product number: 30-2005) basal medium containing 10% fetal bovine serum. K562 cells were seeded in a 96-well plate at a density of 7,500 cells/well, and different concentrations of the compound of the present invention and positive control samples Alisertib (source: Bide Pharmaceuticals) and dBET6 (source: Bide Pharmaceuticals) were prepared to treat the cells. The cells were incubated at a 37° C., 5% CO2 cell culture incubator for 4 days.
Cell viability was detected using the CCK-8 kit (Beyotime, Product number: C0040) according to the manufacturer's instructions. According to the inhibition rate, GraphPad Prism software was used to calculate the IC50 value of each compound for 4 days, and the results are shown in Table 11-12.

MV-4-11 cells = test: MV-4-11 cell proliferation inhibition, CCK-8; settings: Homo sapiens, MV4-11, 96 h, MV-4-11, 4 days
Description: The complete medium required for MV-4-11 cells is IMDM (ATCC, Product number: 30-2005) basal medium containing 10% fetal bovine serum. MV-4-11 cells were seeded in a 96-well plate at a density of 7,500 cells/well, and different concentrations of the compound of the present invention and positive control samples Alisertib (source: Bide Pharmaceuticals), Palbociclib (source: Bide Pharmaceuticals), Ibrutinib (source Bide Pharmaceuticals) treated cells. The cells were incubated in a 37° C., 5% CO2 cell incubator for 4 days. Cell viability was detected using the CCK-8 kit (Beyotime, Product number: C0040) according to the manufacturer's instructions. According to the inhibition rate, GraphPad Prism software was used to calculate the IC50 value of each compound for 4 days, and the results are shown in Table 6-8.

MOLM-13 cells = test: MOLM-13 cell proliferation inhibition, CCK-8; settings: Homo sapiens, 96 h, MOLM-13, 4 days, Table 10
Description: The complete medium required for MOLM-13 cells is 1640 (ATCC, Product number: 30-2001) basal medium containing 20% fetal bovine serum. MOLM-13 cells were seeded in a 96-well plate at a density of 7,500 cells/well, and different concentrations of the compounds of the present invention were prepared to treat the cells at the same time. The cells were incubated in a 37° C., 5% CO2 cell culture incubator for 4 days. Cell viability was detected using the CCK-8 kit (Beyotime, Product number: C0040) according to the manufacturer's instructions. According to the inhibition rate, GraphPad Prism software was used to calculate the IC50 value of each compound for 4 days, and the results are shown in Table 9-10.

[1] = Homo sapiens, 96 h, Table 11, positive control Alisertib
[2] = Table 6, positive control Alisertib
[3] = Homo sapiens, 96 h, Table 12, positive control dBET6
[4] = Table 7, positive control Palbociclib

| IC50 (K562 cells; [1]) [nM] | IC50 (MV-4-11 cells; [2]) [nM] | IC50 (MOLM-13 cells) [nM] | IC50 (MV-4-11 cells; [4]) [nM] | Compound | other results |
| --- | --- | --- | --- | --- | --- |
| 3770 | 26 |  |  | COc1cc(Nc2ncc3c(n2)-c2ccc(Cl)cc2C(c2c(F)cccc2OC)=NC3)ccc1C(=O)O [Alisertib, reference compound] |  |
| 150 | 120 |  |  | COc1cc(Nc2ncc3c(n2)-c2ccc(Cl)cc2C(c2c(F)cccc2OC)=NC3)ccc1C(=O)N1CCC2(CCc3cc4c(cc3O2)CN(C2CCC(=O)NC2=O)C4=O)CC1 (centres unmarked) [PROTAC 1, 3-(1-(4-((9-chloro-7-(2-fluoro-6-methoxyphenyl)-5H-benzo[c]pyrimido[4,5-e]azepine-2-yl)amino)-2-methoxybenzoyl)-6′-oxo-3′,4′,6′,8′-tetrahydro-7′H-spiro[piperidine-4,2′-pyrano[2,3-f]isoindol]-7′-yl)piperidine-2,6-dione] |  |
| 410 | 77 |  |  | COc1cc(Nc2ncc3c(n2)-c2ccc(Cl)cc2C(c2c(F)cccc2OC)=NC3)ccc1C(=O)N1CC2(CCc3cc4c(cc3O2)CN(C2CCC(=O)NC2=O)C4=O)C1 (centres unmarked) [PROTAC 3, 3-(1-(4-((9-chloro-7-(2-fluoro-6-methoxyphenyl)-5H-benzo[c]pyrimido[4,5-e]azepine-2-yl)amino)-2-methoxybenzoyl)-6′-oxo-3′,4′,6′,8′-tetrahydro-7′H-spiro[azetidine-3,2′-pyrano[2,3-f]isoindole]-7′-yl)piperidine-2,6-dione] |  |
| 220 | 25 |  |  | COc1cc(Nc2ncc3c(n2)-c2ccc(Cl)cc2C(c2c(F)cccc2OC)=NC3)ccc1C(=O)N1CC2(CCc3cc4c(cc3O2)C(=O)N(C2CCC(=O)NC2=O)C4)C1 (centres unmarked) [PROTAC 4, 3-(1-(4-((9-chloro-7-(2-fluoro-6-methoxyphenyl)-5H-benzo[c]pyrimido[4,5-e]azepine-2-yl)amino)-2-methoxybenzoyl)-8′-oxo-3′,4′,6′,8′-tetrahydro-7′H-spiro[azetidine-3,2′-pyrano[2,3-f]isoindole]-7′-yl)piperidine-2,6-dione] |  |
| 1470 | 360 |  |  | COc1cc(Nc2ncc3c(n2)-c2ccc(Cl)cc2C(c2c(F)cccc2OC)=NC3)ccc1C(=O)NCCOCCC(=O)N1CCC2(CC1)COc1cc3c(cc12)C(=O)N(C1CCC(=O)NC1=O)C3=O (centres unmarked) [PROTAC 7, 4-((9-chloro-7-(2-fluoro-6-methoxyphenyl)-5H-benzo[c]pyrimido[4,5-e]azepine-2-yl)amino)-N-(2-(3-(6-(2,6-dioxopiperidin-3-yl)-5,7-dioxo-6,7-dihydro-2H,5H-spiro[furan [2,3-f]isoindole-3,4′-piperidin]-1′-yl)-3-oxopropoxy)ethyl)-2-methoxybenzamide] |  |
|  |  |  |  | Cc1nc(Nc2ncc(C(=O)Nc3c(C)cccc3Cl)s2)cc(N2CCN(CCOCCC(=O)N3CCC4(CC3)COc3cc5c(cc3O4)CN(C3CCC(=O)NC3=O)C5=O)CC2)n1 (centres unmarked) [PROTAC 15, N-(2-chloro-6-methylphenyl)-2-((6-(4-(2-(3-(7′-(2,6-dioxopiperidin-3-yl)-6′-oxo-7′,8′-dihydro-3′H,6′H-spiro[piperidine-4,2′-[1,4]dioxino[2,3-f]isoindol]-1-yl)-3-oxopropoxy)ethyl)piperazin-1-yl)-2-methylpyrimidin-4-yl)amino)thiazole-5-carboxamide] | IC50 (K562 cells; [3]): 5 nM |
|  |  |  |  | Cc1nc(Nc2ncc(C(=O)Nc3c(C)cccc3Cl)s2)cc(N2CCN(CCOCCC(=O)N3CC4(CCc5cc6c(cc5O4)CN(C4CCC(=O)NC4=O)C6=O)C3)CC2)n1 (centres unmarked) [PROTAC 16, N-(2-chloro-6-methylphenyl)-2-((6-(4-(2-(3-(7′-(2,6-dioxopiperidin-3-yl)-6′-oxo-4′,6′,7′,8′-tetrahydro-3′H-spiro[azetidine-3,2′-pyrano[2,3-f]isoindole]-1-yl)-3-oxopropoxy)ethyl)piperazin-1-yl)-2-methylpyrimidin-4-yl)amino)thiazole-5-carboxamide] | IC50 (K562 cells; [3]): 48 nM |
|  |  | 12400 | 12700 | CC(=O)c1c(C)c2cnc(Nc3ccc(N4CCN(CCOCCC(=O)N5CC6(CCc7cc8c(cc7O6)C(=O)N(C6CCC(=O)NC6=O)C8=O)C5)CC4)cn3)nc2n(C2CCCC2)c1=O (centres unmarked) [PROTAC 39, 1-(3-(2-(4-(6-((6-acetyl-8-cyclopentyl-5-methyl-7-oxo-7,8-dihydropyridone[2,3-d]pyrimidin-2-yl)amino)pyridin-3-yl)piperazin-1-yl)ethoxy)propionyl)-7′-(2,6-dioxopiperidin-3-yl)-3′,4′-dihydro-6′H-spiro[azetidine-3,2′-pyrano[2,3-f]isoindole]-6′,8′(7′ H)-dione] |  |
|  |  | 4870 |  | CC(=O)c1c(C)c2cnc(Nc3ccc(N4CCN(CCOCCC(=O)N5CCC6(CC5)COc5cc7c(cc5C6)C(=O)N(C5CCC(=O)NC5=O)C7=O)CC4)cn3)nc2n(C2CCCC2)c1=O (centres unmarked) [PROTAC 40, 1-(3-(2-(4-(6-((6-acetyl-8-cyclopentyl-5-methyl-7-oxo-7,8-dihydropyridone[2,3-d]pyrimidin-2-yl)amino)pyridin-3-yl)piperazin-1-yl)ethoxy)propionyl)-7′-(2,6-dioxopiperidin-3-yl)-2′H-spiro[piperidine-4,3′-pyrano[2,3-f]isoindole]-6′,8′(4′H,7′H)-dione] |  |
|  |  | 2190 | 2160 | CC(=O)c1c(C)c2cnc(Nc3ccc(N4CCN(CCOCCC(=O)N5CCC6(CC5)COc5cc7c(cc56)C(=O)N(C5CCC(=O)NC5=O)C7=O)CC4)cn3)nc2n(C2CCCC2)c1=O (centres unmarked) [PROTAC 41, 1′-(3-(2-(4-(6-((6-acetyl-8-cyclopentyl-5-methyl-7-oxo-7,8-dihydropyridone[2,3-d]pyrimidin-2-yl)amino)pyridin-3-yl)piperazin-1-yl)ethoxy)propionyl)-6-(2,6-dioxopiperidin-3-yl)-6-hydro-2H,5H-spiro[furo[2,3-f]isoindole-3,4′-piperidine]-5,7-dione] |  |
|  |  | 830 | 940 | CC(=O)c1c(C)c2cnc(Nc3ccc(N4CCN(CCOCCC(=O)N5CCC6(CCc7cc8c(cc7O6)C(=O)N(C6CCC(=O)NC6=O)C8)CC5)CC4)cn3)nc2n(C2CCCC2)c1=O (centres unmarked) [PROTAC 42, 3-(1-(3-(2-(4-(6-((6-acetyl-8-cyclopentyl-5-methyl-7-oxo-7,8-dihydropyridone[2,3-d]pyrimidin-2-yl)amino)pyridin-3-yl)piperazin-1-yl)ethoxy)propionyl)-8′-oxo-3′,4′,6′,8′-tetrahydro-7′H-spiro[piperidine-4,2′-pyrano[2,3-f]isoindole]-7′-yl)piperidine-2,6-dione] |  |
|  |  | 1870 | 2490 | CC(=O)c1c(C)c2cnc(Nc3ccc(N4CCN(CCOCCC(=O)N5CCC6(CCc7cc8c(cc7O6)CN(C6CCC(=O)NC6=O)C8=O)CC5)CC4)cn3)nc2n(C2CCCC2)c1=O (centres unmarked) [PROTAC 43, 3-(1-(3-(2-(4-(6-((6-acetyl-8-cyclopentyl-5-methyl-7-oxo-7,8-dihydropyridone[2,3-d]pyrimidin-2-yl)amino)pyridin-3-yl)piperazin-1-yl)ethoxy)propionyl)-6′-oxo-6′,8′-dihydro-3′H,7′H-spiro[piperidine-4,2′-[1,4]dioxino[2,3-f]isoindole]-7′-yl)piperidine-2,6-dione] |  |
|  |  | 1310 | 3310 | CC(=O)c1c(C)c2cnc(Nc3ccc(N4CCN(CCOCCC(=O)N5CC6(CCc7cc8c(cc7O6)C(=O)N(C6CCC(=O)NC6=O)C8)C5)CC4)cn3)nc2n(C2CCCC2)c1=O (centres unmarked) [PROTAC 44, 3-(1-(3-(2-(4-(6-((6-acetyl-8-cyclopentyl-5-methyl-7-oxo-7,8-dihydropyridone[2,3-d]pyrimidin-2-yl)amino)pyridin-3-yl)piperazin-1-yl)ethoxy)propionyl)-8′-oxo-3′,4′,6′,8′-tetrahydro-7′H-spiro[azetidine-3,2′-pyrano[2,3-f]isoindole]-7′-yl)piperidine-2,6-dione] |  |
|  |  | 4340 | 4250 | CC(=O)c1c(C)c2cnc(Nc3ccc(N4CCN(CCOCCC(=O)N5CC6(CCc7cc8c(cc7O6)CN(C6CCC(=O)NC6=O)C8=O)C5)CC4)cn3)nc2n(C2CCCC2)c1=O (centres unmarked) [PROTAC 45, 3-(1-(3-(2-(4-(6-((6-acetyl-8-cyclopentyl-5-methyl-7-oxo-7,8-dihydropyridone[2,3-d]pyrimidin-2-yl)amino)pyridin-3-yl)piperazin-1-yl)ethoxy)propionyl)-6′-oxo-3′,4′,6′,8′-tetrahydro-7′H-spiro[azetidine-3,2′-pyrano[2,3-f]isoindole]-7′-yl)piperidine-2,6-dione] |  |
|  |  |  |  | Cc1sc2c(c1C)C(c1ccc(Cl)cc1)=N[C@@H](CC(=O)NCCCCCCCCNC(=O)COc1cccc3c1C(=O)N(C1CCC(=O)NC1=O)C3=O)c1nnc(C)n1-2 (some centres unmarked) [dBET6, reference compound] | IC50 (K562 cells; Table 12, positive control dBET6): 1 nM |
